System: sheep mammary gland
Assay: Single intramammary infusion of lipopolysaccharide, MAL cell collection
Type: in vivo

lipopolysaccharide
MAL cell influx (24 h after single intramammary infusion): predominantly neutrophils
MAL cell influx (day 5 after single intramammary infusion): macrophage infiltration

— US20050019260A1, “Animal model for allergy” (priority 2001, published 2005)
